Experimental data: patent US4746675A, “External pharmaceutical composition” (Teijin Limited, priority 1983, dated 1988)

Columns and labels:
[1] = system: carrageenan edema; test: carrageenan edema inhibiting effect of betamethasone valerate ointments; format: in vivo, rat; details: Table 5, betamethasone valerate ointment with penetration enhancer
Protocol: An ointment was prepared from 0.15 part by weight of betamethasone valerate, 9.85 parts by weight of compound (168) and 90 parts by weight of the hydrophilic ointment.
In accordance with the method of R. Passarella et al. [Argneim. Forsch 30, (I), Nr. 4, 647-651 (1980)], the carrageenan edema inhibiting effect of the above ointment was examined. Specifically, 0.1 ml of a 1% carrageenan suspension in 0.9% NaCl solution was injected into the tip of the right leg of a rat (body weight 150-175 g). The foot volume was measured immediately after administration of carrageenan and 3, 5, and 6 hours after the administration by means of a mercury displacement device. 0.5, 1 and 2 hours after the administration of carrageenan, 100 mg of the ointment was well […] into each of the sites which underwent inflammation.
Various ointments were prepared from 0.15 part by weight of betamethasone valerate, […] of the various penetration enhancers shown in Table 5, and 85 parts by weight of the hydrophilic ointment, and tested in the same way as in Example 23.

[2] = system: eye (cornea, iris, conjunctiva); test: primary eye irritation (Draize) in rabbits; format: in vivo, white native male rabbits; details: average of three rabbits
Protocol: enhancers of this invention shown in Table 17 was applied dropwise to one eye of white native male rabbits (body weight 2.0 to 3.0 kg; 3 per group) which, it had been ascertained, were free from any trouble at the cornea, iris and conjunctiva. Nothing was applied to the other eye. Thus, irritation of the absorption aid to the mucous membrane of the eyes were examined, and scores were calculated in accordance with the Draize's eye irritation evaluating method [Association of Foods, "Drugs and Cosmetics" (1957)].
As a control, sodium laurylsulfate, a kind of surface-active agent, was evaluated in the same way, and the results are also shown in Table 17.

CCCCCCCCCCCCOCC(O)COC(=O)[C@@H]1CCC(=O)N1 (some centres unmarked) [Compound (108), 3-dodecyloxy-2-hydroxy-1-pyroglutamyloxypropane]
2.0: Primary irritation score, Conjunctiva ([2]; 0.8% soln, 1 hour) | Primary irritation score, Total ([2]; 0.8% soln, 1 hour) | Primary irritation score, Conjunctiva ([2]; 0.8% soln, 3 hours) | Primary irritation score, Total ([2]; 0.8% soln, 3 hours)
0: Primary irritation score, Cornea ([2]; 0.8% soln, 1 hour) | Primary irritation score, Iris ([2]; 0.8% soln, 1 hour) | Primary irritation score, Cornea ([2]; 0.8% soln, 3 hours) | Primary irritation score, Iris ([2]; 0.8% soln, 3 hours) | Primary irritation score, Cornea ([2]; 0.8% soln, 6 hours) | Primary irritation score, Iris ([2]; 0.8% soln, 6 hours) | Primary irritation score, Conjunctiva ([2]; 0.8% soln, 24 hours) | Primary irritation score, Cornea ([2]; 0.8% soln, 24 hours) | Primary irritation score, Iris ([2]; 0.8% soln, 24 hours) | Primary irritation score, Total ([2]; 0.8% soln, 24 hours) | Primary irritation score, Conjunctiva ([2]; 0.8% soln, 48 hours) | Primary irritation score, Cornea ([2]; 0.8% soln, 48 hours) | Primary irritation score, Iris ([2]; 0.8% soln, 48 hours) | Primary irritation score, Total ([2]; 0.8% soln, 48 hours) | Primary irritation score, Conjunctiva ([2]; 0.8% soln, 72 hours) | Primary irritation score, Cornea ([2]; 0.8% soln, 72 hours) | Primary irritation score, Iris ([2]; 0.8% soln, 72 hours) | Primary irritation score, Total ([2]; 0.8% soln, 72 hours) | Primary irritation score, Conjunctiva ([2]; 0.8% soln, 96 hours) | Primary irritation score, Cornea ([2]; 0.8% soln, 96 hours) | Primary irritation score, Iris ([2]; 0.8% soln, 96 hours) | Primary irritation score, Total ([2]; 0.8% soln, 96 hours) | Primary irritation score, Conjunctiva ([2]; 0.8% soln, 168 hours) | Primary irritation score, Cornea ([2]; 0.8% soln, 168 hours) | Primary irritation score, Iris ([2]; 0.8% soln, 168 hours) | Primary irritation score, Total ([2]; 0.8% soln, 168 hours)
20.1%: Percentage inhibition vs. control ([1]; 3 hrs)
36.7%: Percentage inhibition vs. control ([1]; 5 hrs) | Percentage inhibition vs. control ([1]; 6 hrs)
1.3: Primary irritation score, Conjunctiva ([2]; 0.8% soln, 6 hours) | Primary irritation score, Total ([2]; 0.8% soln, 6 hours)

CCC=CCCCCCCCCOCC(O)COC(=O)[C@@H]1CCC(=O)N1 (some centres unmarked) [Compound (134), 3-(9-dodecenyloxy)-2-hydroxy-1-pyroglutamyloxypropane]
1.3: Primary irritation score, Conjunctiva ([2]; 2.4% soln, 3 hours) | Primary irritation score, Total ([2]; 2.4% soln, 3 hours) | Primary irritation score, Conjunctiva ([2]; 2.4% soln, 6 hours) | Primary irritation score, Total ([2]; 2.4% soln, 6 hours)
16.4%: Percentage inhibition vs. control ([1]; 3 hrs)
0: Primary irritation score, Cornea ([2]; 2.4% soln, 1 hour) | Primary irritation score, Iris ([2]; 2.4% soln, 1 hour) | Primary irritation score, Cornea ([2]; 2.4% soln, 3 hours) | Primary irritation score, Iris ([2]; 2.4% soln, 3 hours) | Primary irritation score, Cornea ([2]; 2.4% soln, 6 hours) | Primary irritation score, Iris ([2]; 2.4% soln, 6 hours) | Primary irritation score, Conjunctiva ([2]; 2.4% soln, 24 hours) | Primary irritation score, Cornea ([2]; 2.4% soln, 24 hours) | Primary irritation score, Iris ([2]; 2.4% soln, 24 hours) | Primary irritation score, Total ([2]; 2.4% soln, 24 hours) | Primary irritation score, Conjunctiva ([2]; 2.4% soln, 48 hours) | Primary irritation score, Cornea ([2]; 2.4% soln, 48 hours) | Primary irritation score, Iris ([2]; 2.4% soln, 48 hours) | Primary irritation score, Total ([2]; 2.4% soln, 48 hours) | Primary irritation score, Conjunctiva ([2]; 2.4% soln, 72 hours) | Primary irritation score, Cornea ([2]; 2.4% soln, 72 hours) | Primary irritation score, Iris ([2]; 2.4% soln, 72 hours) | Primary irritation score, Total ([2]; 2.4% soln, 72 hours) | Primary irritation score, Conjunctiva ([2]; 2.4% soln, 96 hours) | Primary irritation score, Cornea ([2]; 2.4% soln, 96 hours) | Primary irritation score, Iris ([2]; 2.4% soln, 96 hours) | Primary irritation score, Total ([2]; 2.4% soln, 96 hours) | Primary irritation score, Conjunctiva ([2]; 2.4% soln, 168 hours) | Primary irritation score, Cornea ([2]; 2.4% soln, 168 hours) | Primary irritation score, Iris ([2]; 2.4% soln, 168 hours) | Primary irritation score, Total ([2]; 2.4% soln, 168 hours)
30.3%: Percentage inhibition vs. control ([1]; 5 hrs)
3.3: Primary irritation score, Conjunctiva ([2]; 2.4% soln, 1 hour) | Primary irritation score, Total ([2]; 2.4% soln, 1 hour)
34.2%: Percentage inhibition vs. control ([1]; 6 hrs)

CCCCCCCC(=O)OCC(COC(=O)[C@@H]1CCC(=O)N1)OC(=O)CCCCCCC (some centres unmarked) [Compound (162), 2,3-dioctanoyloxy-1-pyroglutamyloxypropane]
16.1%: Percentage inhibition vs. control ([1]; 3 hrs)
0: Primary irritation score, Cornea ([2]; 2.4% soln, 1 hour) | Primary irritation score, Iris ([2]; 2.4% soln, 1 hour) | Primary irritation score, Cornea ([2]; 2.4% soln, 3 hours) | Primary irritation score, Iris ([2]; 2.4% soln, 3 hours) | Primary irritation score, Cornea ([2]; 2.4% soln, 6 hours) | Primary irritation score, Iris ([2]; 2.4% soln, 6 hours) | Primary irritation score, Conjunctiva ([2]; 2.4% soln, 24 hours) | Primary irritation score, Cornea ([2]; 2.4% soln, 24 hours) | Primary irritation score, Iris ([2]; 2.4% soln, 24 hours) | Primary irritation score, Total ([2]; 2.4% soln, 24 hours) | Primary irritation score, Conjunctiva ([2]; 2.4% soln, 48 hours) | Primary irritation score, Cornea ([2]; 2.4% soln, 48 hours) | Primary irritation score, Iris ([2]; 2.4% soln, 48 hours) | Primary irritation score, Total ([2]; 2.4% soln, 48 hours) | Primary irritation score, Conjunctiva ([2]; 2.4% soln, 72 hours) | Primary irritation score, Cornea ([2]; 2.4% soln, 72 hours) | Primary irritation score, Iris ([2]; 2.4% soln, 72 hours) | Primary irritation score, Total ([2]; 2.4% soln, 72 hours) | Primary irritation score, Conjunctiva ([2]; 2.4% soln, 96 hours) | Primary irritation score, Cornea ([2]; 2.4% soln, 96 hours) | Primary irritation score, Iris ([2]; 2.4% soln, 96 hours) | Primary irritation score, Total ([2]; 2.4% soln, 96 hours) | Primary irritation score, Conjunctiva ([2]; 2.4% soln, 168 hours) | Primary irritation score, Cornea ([2]; 2.4% soln, 168 hours) | Primary irritation score, Iris ([2]; 2.4% soln, 168 hours) | Primary irritation score, Total ([2]; 2.4% soln, 168 hours)
2.0: Primary irritation score, Conjunctiva ([2]; 2.4% soln, 3 hours) | Primary irritation score, Total ([2]; 2.4% soln, 3 hours) | Primary irritation score, Conjunctiva ([2]; 2.4% soln, 6 hours) | Primary irritation score, Total ([2]; 2.4% soln, 6 hours)
3.3: Primary irritation score, Conjunctiva ([2]; 2.4% soln, 1 hour) | Primary irritation score, Total ([2]; 2.4% soln, 1 hour)
34.2%: Percentage inhibition vs. control ([1]; 6 hrs)
34.0%: Percentage inhibition vs. control ([1]; 5 hrs)

CCCCCCCCCCCC(=O)OCC(O)COC(=O)[C@@H]1CCC(=O)N1 (some centres unmarked) [Compound (172), 3-dodecanoyloxy-2-hydroxy-1-pyroglutamyloxypropane]
1.3: Primary irritation score, Conjunctiva ([2]; 2.4% soln, 6 hours) | Primary irritation score, Total ([2]; 2.4% soln, 6 hours)
35.5%: Percentage inhibition vs. control ([1]; 6 hrs)
37.2%: Percentage inhibition vs. control ([1]; 5 hrs)
18.1%: Percentage inhibition vs. control ([1]; 3 hrs)
2.0: Primary irritation score, Conjunctiva ([2]; 2.4% soln, 3 hours) | Primary irritation score, Total ([2]; 2.4% soln, 3 hours)
3.3: Primary irritation score, Conjunctiva ([2]; 2.4% soln, 1 hour) | Primary irritation score, Total ([2]; 2.4% soln, 1 hour)
0: Primary irritation score, Cornea ([2]; 2.4% soln, 1 hour) | Primary irritation score, Iris ([2]; 2.4% soln, 1 hour) | Primary irritation score, Cornea ([2]; 2.4% soln, 3 hours) | Primary irritation score, Iris ([2]; 2.4% soln, 3 hours) | Primary irritation score, Cornea ([2]; 2.4% soln, 6 hours) | Primary irritation score, Iris ([2]; 2.4% soln, 6 hours) | Primary irritation score, Conjunctiva ([2]; 2.4% soln, 24 hours) | Primary irritation score, Cornea ([2]; 2.4% soln, 24 hours) | Primary irritation score, Iris ([2]; 2.4% soln, 24 hours) | Primary irritation score, Total ([2]; 2.4% soln, 24 hours) | Primary irritation score, Conjunctiva ([2]; 2.4% soln, 48 hours) | Primary irritation score, Cornea ([2]; 2.4% soln, 48 hours) | Primary irritation score, Iris ([2]; 2.4% soln, 48 hours) | Primary irritation score, Total ([2]; 2.4% soln, 48 hours) | Primary irritation score, Conjunctiva ([2]; 2.4% soln, 72 hours) | Primary irritation score, Cornea ([2]; 2.4% soln, 72 hours) | Primary irritation score, Iris ([2]; 2.4% soln, 72 hours) | Primary irritation score, Total ([2]; 2.4% soln, 72 hours) | Primary irritation score, Conjunctiva ([2]; 2.4% soln, 96 hours) | Primary irritation score, Cornea ([2]; 2.4% soln, 96 hours) | Primary irritation score, Iris ([2]; 2.4% soln, 96 hours) | Primary irritation score, Total ([2]; 2.4% soln, 96 hours) | Primary irritation score, Conjunctiva ([2]; 2.4% soln, 168 hours) | Primary irritation score, Cornea ([2]; 2.4% soln, 168 hours) | Primary irritation score, Iris ([2]; 2.4% soln, 168 hours) | Primary irritation score, Total ([2]; 2.4% soln, 168 hours)
